Values of other authors, collected in patent US20250134097A1, “PERSISTENT SANITIZER” (priority 2020, published 2025).

Experiments:
Adenovirus = conditions: in vitro; concentration-dependent; includes non-enveloped virus
microbes = conditions: benzalkonium chloride at 0.1-0.2%

In the case of Benzalkonium chloride, the antiviral activity (Adenovirus) is given as “some antiviral activity including non-enveloped activity” and the antimicrobial activity (microbes) is given as “Broad antimicrobial activity”.
